Results published in US8765953B2, “Compounds and methods for the treatment of pain and other diseases” (Aquilus Pharmaceuticals, Inc., priority 2008, dated 2014).

Tests used:
[1] = In-vitro mouse microsomal stability; assay type: in vitro ADME; conditions: mouse microsomes, 1 microMolar compound, at T = 60 minutes
Description: Human and mouse microsomal stability was determined for select compounds following the method of Houston (Houston, J. B; Biochem. Pharmacol. 47, (1994),1469).
1 μM concentration of compound and separate human and mouse microsomes (0.3 mg/mL, BD bioscience) were used in the in-vitro assay. To ensure proper energy supply for microsomal degradation of compound, an energy regenerating system comprised of 100 mM potassium phosphate, 2 mM NADPH, 3 mM MgCl2, pH=7.4. and the microsomal protein is added to each sample and the resulting suspension is then incubated in duplicate for 60 min at 37° C. in a rotary shaker. A control is run for each test agent in duplicate omitting NADPH to detect NADPH-free degradation. At T=0 and T=60 min., an aliquot is removed from each experimental and control reaction and then mixed with an equal volume of ice-cold Stop Solution (consisting of 0.3% acetic acid in acetonitrile containing haloperidol and diclofenac as internal standards). Stopped reactions are then incubated for at least ten minutes at −20° C., and an additional volume of water is then added. The samples are then centrifuged to remove precipitated protein, and the supernatants are then analyzed by LC-MS/MS to determine the percentage of compound remaining. The LC-MS/MS system used was an Agilent 6410 mass spectrometer coupled with an Agilent 1200 HPLC and a CTC PAL chilled autosampler, all controlled by MassHunter software (Agilent), or an ABI2000 mass spectrometer coupled with an Agilent 1100 HPLC and a CTC PAL chilled autosampler, all controlled by Analyst software (ABI). After separation on a C18 reverse phase HPLC column (Agilent, Waters, or equivalent) using an acetonitrile-water gradient system, peaks were analyzed by mass spectrometry (MS) using ESI ionization in MRM mode.

[2] = test system: humans; conditions: cited from earlier work
[3] = cited from earlier work
[4] = test system: spinal nerve ligation (SNL) mouse model; assay: Intraperitoneal (i.p.) SNL-mouse model of neuropathic pain, von Frey mechanical allodynia; assay type: in vivo
From the text: To measure the neuropathic pain inhibiting affects of the MMP inhibitors of the present invention, the spinal nerve ligation (SNL) mouse model was run on a select number of compounds. This model which began with the work of Bennet and coworkers (Bennet, G. J. et al. Pain, 33, (1988), 87-107) and was optimized by Kim and Chung (Kim, S. H.; Chung, J. M. Pain, 50, (1992), 355-363) entails first, under magnification, the removal of one-third of the transverse process and then identifying and then dissecting free the L5 spinal nerve from the adjacent L4 spinal nerve in the mouse. The L5 spinal nerve is then tightly ligated using 6.0 silk suture. The nerve injury leads to hyperalgesia which manifests itself by enhanced responses to mechanical, heat and/or cooling stimuli. In this case, mechanical hyperalgesia is tested via Von Frey monofilaments in which filaments of varying thicknesses and bending force are individually applied to the plantar surface of the foot of the mouse. The threshold force necessary for paw withdrawal decreases dramatically after the nerve surgery. Potent pain inhibitors will reverse this affect resulting in greater force needing to be applied to cause the rodent paw to withdrawal.
Tactile Allodynia Test. Mechanical allodynia was measured using the calibrated von Frey filaments (Semmes-Weinstein monofilaments; Stoelting, Wood Dale, Ill., U.S.A.). The plantar surface of the left injured paw of each animal was tested as described by Chaplan et al. (Journal of Neuroscience Methods, 53, (1994), 55-63). The Fifty percent paw withdrawal threshold response was determined by sequentially increasing or decreasing the stimulus strength according to the “up-down method” of Dixon (Annual Review Pharmacology Toxicology, 20, (1980), 441-462). For mice, […] von Frey filaments were used, with approximately equal logarithmic incremental bending forces (von Frey number: 1.65, 2.36, 2.44, 2.83, 3.22, 3.61, 3.84, 4.08, and 4.17; equivalent to 0.005, 0.02, 0.03, 0.07, 0.17, 0.41, 0.69, 1.20, and 1.48 g force, respectively).
Prior to testing, each animal was placed in a suspended clear plastic chamber with a wire mesh bottom and acclimated for 15 minutes. Testing was initiated with the 0.07 g (handle marking of 2.83) applied perpendicularly to the plantar surface of the affected hind paw; each filament was applied with enough pressure to cause a buckle effect. The absence of a paw lifting/withdrawal response after 6 s prompted the use of the next higher weight filament. Paw withdrawal, indicating a positive response, prompted the use of a weaker filament. After the initial positive response (i.e., paw withdrawal), the testing continued for four additional measurements, and was used to calculate the response threshold. Four consecutive positive responses received a score of 0.001 g, and five consecutive negative responses (i.e., no paw withdrawal) received a score of 1.5 g.
Analyses for Tactile Allodynia Testing. The 50% paw withdrawal threshold was calculated (PWT; Luo and Calcutt, J. Pharmacology Experimental Therapeutics, 303(3), (2002), 1199-1205; Chaplan et al. Journal of Neuroscience Methods, 53, (1994), 55-63) using the formula: 10(Xf+κδ)/10,000 where Xf is the final von Frey filament used (log units), κ is a value that analyzes the response pattern (taken from the table published by Chaplan et al., 1994), and δ is the mean difference between stimuli (log units).
Except for the mode of administration, number of mice/group and the number of injections and amount of compound per injection, the rest of the study was done in the same manner (in regards to the surgeries and tactile allodynia testing and analysis) as Experiment 110. 3.2 mg of each of the MMP inhibitors #5 and #118 were dissolved in 320 microliters of DMSO. To the solution was then added 32 microliters of Tween 80, followed by 2850 microliters of phosphate buffered saline (PBS). This gave a final concentration of 10% DMSO, 1% Tween and 1 mg/ml compound. […]

[5] = i.p. 100 μl/mouse daily (approx. 3.3 mg/Kg), day 1-5

**Q.** What does the source list for `Cc1ccc(C#Cc2ccc(S(=O)(=O)N[C@H](Cc3c[nH]c4ccccc34)C(=O)O)s2)cc1` [Compound 5, (R)-3-(1H-Indol-3-yl)-2-(5-p-tolylethynyl-thiophene-2-sulfonylamino)-propionic acid]?
**A.** % Mean Remaining Parent with NADPH (%) ([1]; with NADPH): 83%; % Mean Remaining Parent without NADPH (%) ([1]; without NADPH (control)): 88%; Musculoskeletal toxicities ([2]; humans (S-3304: animals or man)): no evidence of musculoskeletal toxicities; Adverse events in humans ([2]; humans): headaches, somnolence, vomiting, nausea and gastrointestinal pain; Metabolites found in human blood [3]: formation of several hydroxylated metabolites; Paw withdrawal threshold, mean, Day 1 [4, 5]: 0.078 grams; Paw withdrawal threshold, mean, Day 2 [4, 5]: 0.117 grams; Paw withdrawal threshold, mean, Day 5 [4, 5]: 0.238 grams; Paw withdrawal threshold, mean, Day 6 [4, 5]: 0.099 grams; Paw withdrawal threshold, mean, Day 7 [4, 5]: 0.128 grams; Paw withdrawal threshold, mean, Day 0 Postoperative Baseline ([4]; i.p. study, baseline before treatment): 0.046 grams
